Measurements reported in patent US11672795B2, “Compositions and methods for treating pulmonary vascular disease” (UNIVERSITY OF PITTSBURGH-OF THE COMMONWEALTH SYSTEM OF …, priority 2016, dated 2023).
Where two headings read alike, the source gives them in different places.

What was measured:
PAAFs [1] = assay: Metabolic activation of PAAFs cultivated on stiff matrix; format: cell-based
Source text: (§1) A-C) Pharmacological inhibition of GLS1 by either BPTES, C968 or CB839 blunted metabolic activation of PAAFs cultivated on stiff matrix as reflected by decreased glutaminolysis (A), glycolysis (B) and aspartate production (C). D-E) Pharmacological inhibition of GLS1 by either BPTES, C968 or CB839 decreased PAAFs dependent ECM remodelling upon stimulation by pro-inflammatory cytokines (EDN1, IL6 or TGF-b). […] G-H) Fibrilar collagen visualization (G) and quantification (H) by picrosirius red staining confirmed a decreased of ECM remodelling by activated PAAF (TGF-b) in presence of GLS1 inhibitors. I-M) PAAFs were cultivated upon indicated treatments. Cells were removed and pulmonary arterial endothelial cells (PAECs) were cultivated on the matrix synthesized by the PAAF. […] Data are expressed as mean±SEM (*P<0.05, § P<0.01, #P<0.001) of at least 3 independent experiments performed in triplicate. Paired samples were compared by 2-tailed Student's t test, while 1-way ANOVA and post-hoc Tukey's tests were used for group comparisons.

PAAFs [2] = assay: PAAF-dependent ECM remodelling on cytokine stimulation (RT-qPCR, picrosirius red); format: cell-based; settings: for TGF-b-induced ECM related genes expression / fibroblast activation marker (a-SMA) expression: PAAFs, RT-qPCR; for fibroblast activation marker (a-SMA) expression: TGF-b; for PAAFs dependent ECM remodelling: stimulation by pro-inflammatory cytokines (EDN1, IL6 or TGF-b)
Source text: as §1
(§2) Messenger RNAs were reverse transcribed using the Multiscript RT kit (Life Technologies) to generate cDNA. cDNA was amplified via fluorescently labeled Taqman primer sets using an Applied Biosystems 7900HT Fast Real Time PCR device. To specifically determine the relative expression of the two GLS1 isoforms KGA and GAC, TaqMan gene expression assays Hs01014019_m1 and Hs01022166_m1 were used respectively. Fold-change of RNA species was calculated using the formula (2^−ΔΔCt), normalized to RPLP0 expression.
Picrosirius Red stain was achieved through the use of 5 μm paraffin sections stained with 0.1% Picrosirius Red (Direct Red80, Sigma-Aldrich) and counterstained with Weigert's hematoxylin to reveal fibrillar collagen. The sections were then serially imaged using with an analyzer and polarizer oriented parallel and orthogonal to each other. Microscope conditions (lamp brightness, condenser opening, objective, zoom, exposure time, and gain parameters) were maintained throughout the imaging of all samples. A minimal threshold was set on appropriate control sections for each experiment in which only the light passing through the orthogonally-oriented polarizers representing fibrous structures (i.e., excluding residual light from the black background) was included. The threshold was maintained for all images across all conditions within each experiment. The area of the transferred regions that was covered by the thresholded light was calculated and at least 10 sections/vessel per condition were averaged together (NIH ImageJ software). Targeted LC-MS/MS

GLS1 = format: in vivo, rat; settings: monocrotaline-exposed rats; for GLS1 activity in whole rat lung: daily i.p. 10 mg/kg, C968 from day 2 (prevention), CB839 from day 7 (reversal), vs vehicle; for GLS activity: daily BAPN or daily i.p. verteporfin 25 mg/kg
Method: According to the manufacturer instructions (Glutaminase Microplate Assay Kit, Cohesion Biosciences), flash frozen rat lung tissue (0.1 g/sample) was homogenized in 1 mL of assay buffer on ice and centrifuged at 8000 g 4° C. for 10 min. Protein concentration was determined by Bradford assay. Samples, normalized to total protein (100 μg), were incubated with kit reagents for 1 hr at 37° C., and absorbances were measured at 420 nm.
To induce PH, male Sprague-Dawley rats (10-14 week old) were injected intraperitoneally with 60 mg/kg monocrotaline (Sigma-Aldrich). After two days, rats underwent intraperitoneal injection daily with 25 mg/kg of verteporfin (Active Biochemicals Company, Ltd) solubilized in 5% dimethyl sulfoxide (DMSO, Sigma-Aldrich). Two days after the last injection on day 21 post-monocrotaline injection, right heart catheterization was performed followed by harvest of lung tissue and CD31+ cells for RNA or protein extraction, paraffin embedding, or cryopreservation with OCT (Sigma-Aldrich), as we described (2).
To induce PH, male Sprague-Dawley rats (10-14 week old) were injected intraperitoneally with 60 mg/kg monocrotaline (Sigma-Aldrich). After two days, serial intraperitoneal injections were given daily of C968 (10 mg/kg, Sigma-Aldrich), and after seven days post-monocrotaline injection, serial intraperitoneal injections were given daily of CB839 (10 mg/kg, Selleck Chemicals). Two days after the last injection on day 21 post-monocrotaline injection, right heart catheterization was performed followed by harvest of lung tissue and CD31+ cells for RNA or protein extraction, paraffin embedding, or cryopreservation with OCT (Sigma-Aldrich), as we described (2).

YAP/TAZ target genes = assay: RT-qPCR of YAP/TAZ target genes in CD31+ cells of monocrotaline-exposed rats; format: in vivo, rat; settings: daily BAPN or daily i.p. verteporfin 25 mg/kg
Method: as §2
As previously reported (8, 11), lobes of lung tissue from a rat were diced with scissors, to which 200 μL of collagenase D solution (Sigma) was added for a final concentration of 2 mg/ml collagenase D in 4.8 mL HEPES buffer (pH=7.4). After incubation for 30 min at 37° C. with automated rotation, 20 μL of DNase I (Sigma, final concentration of 80 U/mL DNase I) was added and incubated on ice for 30 min. The solution was filtered twice by a 70 μm cell strainer (BD Biosciences) to yield a single cell suspension. After two rounds of PBS wash, cell pelleting, and resuspension, the ACK lysing buffer (Gibco) was used to remove erythrocytes. Remained cells were incubated 30 min at 4° C. with a mouse anti-rat-CD31 antibody (BD Pharmigen 555025). Cells were PBS washed twice and incubated 15 min with anti-mouse IgG1 MicroBeads (Miltenyi Biotec) according to the manufacturer protocol. Single CD31-positive cells were then collected using an autoMACS Pro Separator, per the manufacturer's instructions (Miltenyi Biotec). The purity (>95%) of CD31 positive cells was confirmed by flow cytometric analysis by a FACScan flow cytometer (BD Biosciences) after cells labeling with the FITC-conjugated anti-CD31 (ab33858, Abcam).
To induce PH, male Sprague-Dawley rats (10-14 week old) were injected intraperitoneally with 60 mg/kg monocrotaline (Sigma-Aldrich). After two days, rats underwent intraperitoneal injection daily with 25 mg/kg of verteporfin (Active Biochemicals Company, Ltd) solubilized in 5% dimethyl sulfoxide (DMSO, Sigma-Aldrich). […]

| SMILES | aspartate production (PAAFs [1]) | glutaminolysis (PAAFs [1]) | glycolysis (PAAFs [1]) | metabolic activation of PAAFs (PAAFs [1]) | TGF-b-induced ECM related genes expression (PAAFs [2]) | fibroblast activation marker (a-SMA) expression (PAAFs [2]) | PAAFs dependent ECM remodelling (PAAFs [2]) | GLS1 activity in whole rat lung (GLS1) | CTGF and CYR61, YAP/TAZ target genes (YAP1-dependent gene expression) (YAP/TAZ target genes) | GLS activity (GLS1) | CTGF and CYR61, YAP/TAZ target genes (YAP1-dependent gene expression) (YAP/TAZ target genes; listed as verteporfin) | GLS activity (GLS1; listed as verteporfin) |
| --- | --- | --- | --- | --- | --- | --- | --- | --- | --- | --- | --- | --- |
| O=C(Cc1cccc(OC(F)(F)F)c1)Nc1ccc(CCCCc2nnc(NC(=O)Cc3ccccn3)s2)nn1 [CB839] | decreased | decreased | decreased | blunted | decreased | decreased | decreased | decreased |  |  |  |  |
| N#CCCN [BAPN, β-aminoproprionitrile] |  |  |  |  |  |  |  |  | decrease | decreased |  |  |
| C=Cc1c(C)c2cc3nc(cc4[nH]c(cc5nc(cc1[nH]2)C(C)=C5CCC(=O)O)c(CCC(=O)OC)c4C)[C@@]1(C)C3=CC=C(C(=O)OC)[C@H]1C(=O)OC [Verteporfin, 3-[(23S,24R)-14-ethenyl-5-(3-methoxy-3-oxopropyl)-22,23-bis(methoxycarbonyl)-4,10,15,24-tetramethyl-25,26,27,28-tetraazahexacyclo[16.6.1.1^3,6.1^8,11.1^13,16.0^19,24]octacosa-1,3,5,7,9,11(27),12,14,16,18(25),19,21-dodecaen-9-yl]propanoic acid] |  |  |  |  |  |  |  |  | decrease | decrease | decreased | improved |
| CN(C)c1ccc(C2Nc3ccc4ccccc4c3C3=C2C(=O)CC(C)(C)C3)cc1Br (stereo not shown) [C968, 5-(3-Bromo-4-(dimethylamino)phenyl)-2,2-dimethyl-2,3,5,6-tetrahydrobenzo[a]phenanthridin-4(1H)-one] | decreased | decreased | decreased | blunted | decreased | decreased | decreased | decreased |  |  |  |  |
